Bounds are passed on as bounds.

Type in all cases: functional, cell-based
Assay [1] relates to N9. Put plainly: Compound was tested for the inhibition of 1-40 beta-Amyloid Production in N9 cell line expressing beta-APP (wascreated by transfecting the human cDNA encoding beta-APP 695) by using immunoprecipitation assay.
Assay [2] concerns N9. The experiment in a line: Compound was tested for the inhibition of total beta-Amyloid Production in N9 cell line expressing beta-APP (wascreated by transfecting the human cDNA encoding beta-APP 695) by using enzyme-linked immunosorbent assay.
Assay [3] has as its system N9. Put plainly: Compound was tested for the inhibition of beta-Amyloid Production in N9 cell line expressing beta-APP. Particulars: Homo sapiens.
The subject of assay [4] is N9. Put plainly: Compound was tested for the inhibition of 1-42 beta-Amyloid Production in N9 cell line expressing beta-APP (wascreated by transfecting the human cDNA encoding beta-APP 695) by using immunoprecipitation assay.
The subject of assay [5] is N9. Put plainly: Compound was tested for the inhibition of total beta-Amyloid Production in N9 cell line expressing beta-APP (wascreated by transfecting the human cDNA encoding beta-APP 695) by using immunoprecipitation assay.

Regarding `CCC(C)[C@H](NC(=O)/C=C/c1cc(OC)cc(OC)c1)C(=O)N[C@H](C=O)CC(C)C` (stereo not given in full), the concentration for half-maximal inhibition (IC50) was 22 µM with N9 [1]; 10 µM with N9 [2]; 9.6 µM in the assay with N9 [3]; greater than 50 µM with N9 [4]; 15 µM with N9 [5].

For the origin of these results see ChEMBL document CHEMBL1132400, “A combinatorial approach to the identification of dipeptide aldehyde inhibitors of beta-amyloid production” (J Med Chem, 1999).
